Laboratory results published in publication PMC8617063 (Nature Communications, 2021).
Read-outs that look alike come from different tables or passages of the source. Ends that are not written are not given here.

Experiments:
saphenous vein bleeding = settings: rat, in vivo
[1] = in vivo, cited from earlier work
tail bleeding = settings: rat, in vivo; for RT50 for bleeding: iv
ear vein bleeding = settings: pig, in vivo
α-thrombin [2] = biological target: α-thrombin (UniProt P00734)
thrombin = thrombin (Homo sapiens, UniProt P00734); assay: biochemical
α-thrombin [3] = biological target: α-thrombin (UniProt P00734); assay: enzyme inhibition (thrombin amidolytic activity on chromogenic substrate S2238); 0.83 nM thrombin, varying concentrations of peptide, 100 µM S2238 (100-400 µM for ultravariegin); 50 mM Tris pH 7.4, 100 mM NaCl, 1 mg/ml BSA, room temperature; tight-binding fit gives apparent Ki', Ki from Ki' for competitive inhibition; for UV011 Ki = IC50 (non-competitive inhibition assumed)

Molecule	Sephaneous vein bleeding (saphenous vein bleeding) [min]	Tail bleeding (tail bleeding) [min]	RT50 for bleeding (tail bleeding)	bleeding time (ear vein bleeding) [min]	Ki (thrombin; Ki (pM)) [pM]	further results
CC[C@H](C)[C@H](NC(=O)[C@H](CCC(=O)O)NC(=O)[C@H](CCC(=O)O)NC(=O)[C@H](Cc1ccccc1)NC(=O)[C@H](CC(=O)O)NC(=O)CNC(=O)[C@H](CC(N)=O)NC(=O)CNC(=O)CNC(=O)CNC(=O)CNC(=O)[C@@H]1CCCN1C(=O)[C@H](CCCNC(=N)N)NC(=O)[C@@H]1CCCN1C(=O)[C@H](N)Cc1ccccc1)C(=O)N1CCC[C@H]1C(=O)N[C@@H](CCC(=O)O)C(=O)N[C@@H](CCC(=O)O)C(=O)N[C@@H](Cc1ccc(O)cc1)C(=O)N[C@@H](CC(C)C)C(=O)O [Bivalirudin, reference compound]	4.131	20.5	4.0 mg/kg/h	45		half-life [1]: 25 min; plasma concentration [1]: around 2.7 µM; tail bleeding time (tail bleeding): maximal bleeding
CC[C@H](C)[C@H](NC(=O)[C@H](C)NC(=O)[C@H](CCC(=O)O)NC(=O)[C@H](Cc1ccccc1)NC(=O)[C@H](CC(=O)O)NC(=O)[C@H](Cc1ccccc1)NC(=O)[C@@H]1CCCN1C(=O)[C@@H]1CCCN1C(=O)[C@H](C)NC(=O)[C@@H](NC(=O)[C@H](CCCCN)NC(=O)[C@H](Cc1cnc[nH]1)NC(=O)[C@H](CCSC)NC(=O)[C@H](CCCCN)NC(=O)[C@@H]1CCCN1C(=O)[C@H](CCC(=O)O)NC(=O)[C@H](C)NC(=O)[C@@H](NC(=O)[C@H](CC(=O)O)NC(=O)CNC(=O)[C@H](CCC(N)=O)NC(=O)[C@H](CC(=O)O)NC(=O)[C@@H](N)CO)C(C)C)[C@@H](C)O)C(=O)N1CCC[C@H]1C(=O)N[C@@H](CCC(=O)O)C(=O)N[C@@H](CCC(=O)O)C(=O)N[C@@H](Cc1ccc(O)cc1)C(=O)N[C@@H](CC(C)C)C(=O)N[C@@H](CC(=O)O)C(=O)N[C@@H](CC(=O)O)C(=O)N[C@@H](CCC(=O)O)C(=O)N[C@@H](CO)C(=O)O [Variegin]	2.613	8	5.3 mg/kg	7.7 ± 2.6		average plasma concentration [1]: ~ 30 nM; half-life [1]: 52.3 ± 4.4 min; volume of distribution ([1]; pig): around 750 ml/kg; Bleeding, Response time (tail bleeding): 60 min; tail bleeding time (tail bleeding): ~ 30 min; bleeding time (ear vein bleeding; iv, 1 mg/kg): 10.3 min
Bivalirudin (peptide)						Ki (α-thrombin [2]): 1.78 nM
MYSTAPPGDFEEIPDDAIEE [UV011]					1660 ± 759	
SDEAVRAIPKMYSTAPPGDFEEIPDDAIEE [Ultravariegin]	2.252	7.5	2.0 mg/kg	6.2 ± 1.3	4.02	Ki (thrombin; Ki, y-intercept of line fitted to Ki′ = Ki (1 + S/Km)): 4.2 ± 0.3 pM
SDEAVRAIPKMYSTAPPGDFETIPDDAIEE [DAA34688.1 repeat 1C]					6.5 ± 1.3	
SDEAVRAIPKMYSTAPPGDFETIPDDAIEER [DAA34688.1 repeat 1B]					20.5 ± 4.7	
SDEAVRAIPKMYSTAPPGDFETIPDDAIEEREMKAR [DAA34688.1 repeat 1]					43.2 ± 8	
SGGHQTAVPKISKQGLGGDFEEIPSDEIIE [Avathrin, reference compound]					624 ± 86	
Ultravariegin (peptide)						Ki (α-thrombin [3]): 0.004 nM
